“And” between values parts separate entries of the source, which are not always exact repeats. Identical values can stand only once.
Assays:
[1] = system: microsomal pellet from chicory roots; assay: Conversion of (+)-valencene by a microsomal pellet of chicory in the presence of NADPH; settings: 100% = hydroxylation rate of β-selinene, 60 min
Experimental: The enzyme suspension was divided in 1 mL aliquots and incubated with 50 μM (+)-valencene in the presence of a 1 mM NADPH-regenerating system that consisted of 1 mM NADPH, 5 mM glucose-6-phosphate, and 1.2 IU glucose-6-phosphate cehydrogenase. The initial concentration of substrate in each assay was 45 μM and all experiments were done in duplicate. To the blank assays no NADPH regenerating system was added, so that cytochrome P450 enzymes (including the (+)-germacrene A hydroxylase) were not active. After 60 minutes the incubations were stopped by storing them at −20° C. in a freezer.

[2] = system: (+)-germacrene A hydroxylase; assay: Competitive inhibition of hydroxylation by 50 μM (+)-germacrene A or 50 μM α-cubebene; settings: amorpha-4,11-diene alcohol (KI 1720), germacrene B alcohol (KI 1700)
[3] = system: NAD(P)+-dependent dehydrogenase(s); assay: Oxidation of alcohols by 150,000 g supernatant of chicory roots with NAD(P)+; type: biochemical, Cichorium intybus L.
Experimental: It was assumed that this β-nootkatol is an intermediate in the formation of nootkatone. For this reason incubations of 100 μM β-nootkatol were performed at pH 10 with NAD(P)^+and a 150,000 g supernatant of chicory roots, such as described for the conversion of (−)-elema-1,3,11(13)-12-ol and germacra-1(10),4,11(13)-trien-12-ol by NADP^+-dependent dehydrogenases by De Kraker et al. (2001). During incubation the added β-nootkatol was converted for more than 60% into nootkatone in the presence of either 1 mM NADP^+ or 1 mM NAD^+. In the absence of these cofactors conversion still amounted to 25%, whereas the boiled enzyme extract gave no conversion of β-nootkatol. At pH 7.5, enzyme activity was slightlylower, whereas a 150,000 g pellet, as expected, yielded 3-fold less dehydrogenase activity than the corresponding supernatant.
To get some more information about the substrate specificity of the dehydrogenase(s) present in chicory roots, incubations with the 150,000 g supernatant were also performed with 100 μM trans,trans-farnesol as substrate (FIG. 19) in the presence of either NAD^+ or NADP^+. Trans,trans-farnesol was converted up to 60% into a mixture of trans,trans-farnesal and cis,trans-farnesal, and small amounts of farnesoic acid were observed as well.

With `C=C(C)[C@@H]1CCC2=CCC[C@@H](C)[C@]2(C)C1` [(+)-valencene] as the molecule, how does the “Relative conversion to nootkatone” value [1] read?
The value was 24.4% and 24.4 ± 1.1%.

What about the “Relative conversion to valencen-12-ol” value [1] of the same molecule?
The value was 2.61% and 2.6 ± 0.1%.

Which results are given for `CC(C)=C1C/C=C(\C)CC/C=C(\C)CC1` [germacrene B]?
Inhibition (%) ± SD, Germacrene A, second product ([2]; 50 μM (+)-germacrene A added): 100.0%; Inhibition (%) ± SD, α-Cubebene, second product ([2]; 50 μM α-cubebene added): 27.3 ± 10%

With `CC(C)=CCC/C(C)=C/CC/C(C)=C/CO` [Trans,trans-farnesol, trans,trans-farnesol] as the molecule, how does the “Conversion into a mixture of trans,trans-farnesal and cis,trans-farnesal” value ([3]; 100 μM substrate, NAD+ or NADP+, 150,000 g supernatant) read?
The value was “up to 60%”.

And the “Conversion of farnesol into farnesal, share of maximum enzyme activity” value ([3]; pH 7.0, maximum at pH 10)?
Its value is 30%.
